A word on the inhibition: it is the change of the read-out against control, counted positive when it falls.

Each structure is given as a SMILES string.

T1 sequence (P22460 whole entry): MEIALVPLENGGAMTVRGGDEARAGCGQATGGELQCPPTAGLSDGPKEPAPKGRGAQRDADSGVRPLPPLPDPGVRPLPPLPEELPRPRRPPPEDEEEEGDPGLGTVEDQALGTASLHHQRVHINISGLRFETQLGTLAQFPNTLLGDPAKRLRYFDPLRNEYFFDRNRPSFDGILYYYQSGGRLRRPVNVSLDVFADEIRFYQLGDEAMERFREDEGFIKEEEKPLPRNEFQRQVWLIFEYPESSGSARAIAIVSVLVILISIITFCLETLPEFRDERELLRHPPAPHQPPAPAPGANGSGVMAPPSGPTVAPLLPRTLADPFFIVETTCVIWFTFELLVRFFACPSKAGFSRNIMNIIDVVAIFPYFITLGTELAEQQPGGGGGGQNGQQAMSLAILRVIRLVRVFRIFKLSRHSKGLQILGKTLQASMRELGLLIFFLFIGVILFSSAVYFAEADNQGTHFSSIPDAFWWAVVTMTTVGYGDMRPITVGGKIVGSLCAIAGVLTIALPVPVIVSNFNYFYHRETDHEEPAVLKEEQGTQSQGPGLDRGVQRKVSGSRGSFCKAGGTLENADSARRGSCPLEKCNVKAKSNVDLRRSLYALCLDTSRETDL

The assay concerns the target T1, human KV 1.5 (IKur) (Homo sapiens, UniProt P22460).
T1 construct: expressed in transfected cells
As to the kind of experiment: Block of IKur current in patch clamped L-929 cells expressing human Kv1.5. Conditions: L929, patch clamped mammalian L-929 cells stably expressing human Kv1.5, read-out: Percentage inhibition of Kv1.5 in L-929 cells at 0.3 μM. The format is cell-based. An excerpt: Assays to determine the degree of activity of a compound as an IKur inhibitor are well known in the art and are described in references such as J. Gen. Physiol., 101(4):513-543 (April 1993), and Br. J. Pharmacol., 115(2):267-274 (May 1995).
Synders, D. J. et al., “A rapidly activating and slowly inactivating potassium channel cloned from human heart: functional analysis after stable mammalian cell culture expression”, J. Gen. Physiol., 101:513-543 (1993). • 2. Zhou, Z. et al., “Block of HERG potassium channels by the antihistamine astemizole and its metabolites desmethylastemizole and norastemizole”, J. Cardiovasc. Electrophysiol., 10(6):836-843 (1999).
As for `CCOC(=O)c1cncc(-c2cc(NCc3ccccc3)c3c(-c4cncc(C(=O)OCC)c4)ccn3n2)c1` [Example 5, Diethyl 5,5′-(4-(benzylamino)pyrrolo[1,2-b]pyridazine-2,5-diyl)dinicotinate], the inhibition at 0.3 µM was determined as 34%.

As for `NS(=O)(=O)c1cncc(-c2cc(NCc3ccccc3)c3c(-c4cccc(F)c4)ccn3n2)c1` [Example 6, 5-(4-(Benzylamino)-5-(3-fluorophenyl)pyrrolo[1,2-b]pyridazin-2-yl)-pyridine-3-sulfonamide], the inhibition at 0.3 µM stood at 95%.

Turning to `CC(=O)Nc1cncc(-c2cc(NCc3ccccc3)c3c(-c4ccccc4)ccn3n2)c1` [Example 3, N-(5-(4-(Benzylamino)-5-phenylpyrrolo[1,2-b]pyridazin-2-yl)pyridin-3-yl)acetamide], the inhibition at 0.3 µM came to 98%.

As to `CS(=O)(=O)Nc1cncc(-c2cc(NCc3ccccc3)c3c(-c4ccccc4)ccn3n2)c1` [Example 4, N-(5-(4-(Benzylamino)-5-phenylpyrrolo[1,2-b]pyridazin-2-yl)pyridin-3-yl)methanesulfonamide], the inhibition at 0.3 µM turned out to be 98%.

With `NS(=O)(=O)c1cncc(-c2cc(NCc3ccccc3)c3c(-c4ccccc4)ccn3n2)c1` [Example 1, 5-(4-(Benzylamino)-5-phenylpyrrolo[1,2-b]pyridazin-2-yl)pyridine-3-sulfonamide], the inhibition at 0.3 µM amounted to 99%.

With `CC(=O)NS(=O)(=O)c1cncc(-c2cc(NCc3ccccc3)c3c(-c4ccccc4)ccn3n2)c1` [Example 2, N-((5-(4-(Benzylamino)-5-phenylpyrrolo[1,2-b]pyridazin-2-yl)pyridin-3-yl)sulfonyl)acetamide], the inhibition at 0.3 µM was determined as 37%.

These data come from patent US9458164B2, “Pyrrolopyridazines as potassium ion channel inhibitors” (BRISTOL-MYERS SQUIBB COMPANY, priority 2013, dated 2016).
